According to paper PMC8037310, “Thrombin-Derived Peptides Potentiate the Activity of Gram-Positive-Specific Antibiotics against Gram-Negative Bacteria” (Molecules, 2021):
Several values for one entry are separate records, joined by “and”; a condition that tells them apart may be missing. Identical values can stand only once. Like-named read-outs stand apart in the source and are kept apart here. Bridge positions count the residues as written; N and C are the ends. Square brackets hold non-standard residues; d marks the D form. Peptide text beside a SMILES is read from it. Dab = NCC[C@H](N)C(=O)O

What was measured:
E. coli BW25113 [1] = test: microbe, parasite or virus in culture; type: cell-based, Escherichia coli
Description: (§1) All peptides were screened for antimicrobial activity against E. coli BW25113, E. coli ATCC25922, and E. coli W3110. A select group of the peptides was further tested against E. coli mcr-1, E. coli EQASmcr-1 (EQAS 2016 412016126), E. coli EQASmcr-2 (EQAS 2016 KP37), E. coli EQASmcr-3 (EQAS 2017 2013-SQ352), K. pneumoniae ATCC13883, P. aeruginosa ATCC27853, and A. baumannii ATCC17978. The antimicrobial assay was performed according to CLSI guidelines. Bacteria were plated out directly from their glycerol stocks on blood agar plates, incubated overnight at 37 °C, and then kept in the fridge. The blood agar plates were only used for 2 weeks and then replaced.
(§2) One colony from a blood agar plates was inoculated in Lysogeny Broth (LB) at 37 °C until a 0.5 optical density at 600 nm (OD600) was reached (compared to the sterility control of LB). The bacterial suspension was diluted in fresh LB to 2.0 × 10^6 CFU/mL. The serial dilutions were prepared in polypropylene microtiter plates: a stock of the test compounds was prepared with a 2x final concentration in LB. Moreover, 100 µL of the stock was added to the wells of the top row of which 50 µL was used for the serial dilution. The bottom row of each plate was used as the positive (50 µL of LB) and negative controls (100 µL of LB) (6 wells each). Furthermore, 50 µL of the 2.0 × 10^6 CFU/mL bacterial stock was added to each well except for the negative controls, adding up to a total volume of 100 µL per well. The plates were sealed with a breathable seal and incubated for 20 h at 37 °C and 600 rpm.
(§3) Two 96-well plates were required per compound. A serial dilution of the compound was performed on two plates from row A–G using with LB as medium. Row H was filled with 25 µL medium. On a separate plate a negative control (8 wells, 100 μL medium) was prepared. For all concentrations of antibiotic a specific stock was prepared. 25 µL medium was added to the 0 µg/mL antibiotic columns (plate I, column 1–3). Of each antibiotic stock 25 µL was added to three columns to obtain triplicates for every condition. Both plates contained 50 µL in each well to which 50 µL bacterial stock was added (see the protocol of the MIC assays) and the plates were sealed. After incubation for 20 h at 37 °C while shaking, the breathable seals were removed and the density of the bacterial suspensions measured at 600 nm (OD600) using a Tecan Spark plate reader. The OD600 values were transformed to a 2D gradient with the negative control as minimum and the positive control (wells G1, G2, and G3) as maximum in excel. The FICi was calculated using Equation (1) with a FICi ≤ 0.5 indicating synergy. FICi = (MSCa/MICa) + (MSCb/MICb),(1)
(§4) Calculation of the FICi: MSCa = concentration of the […] in combination with the antibiotic that results in the lowest FICi. MICa = MIC of the antibiotic without synergist (row G). MSCb = concentration of the synergist in combination with the antibiotic that results in the lowest FICi. MICb = MIC of the synergist itself (Column 1–3, plate I).

K. pneumoniae ATCC13883 = test: Checkerboard assay with rifampicin; type: cell-based, Klebsiella pneumoniae
Description: as §1, §2, §3, §4

E. coli mcr-1 = type: cell-based, Escherichia coli; conditions: rifampicin without synergist; E. coli mcr-1
Description: as §1, §2, §3, §4

E. coli ATCC25922 = type: cell-based, Escherichia coli; conditions: rifampicin without synergist; E. coli ATCC25922
Description: as §1, §2, §3, §4

A. baumannii ATCC17978 = test: microbe, parasite or virus in culture; type: cell-based, Acinetobacter baumannii
Description: as §1, §2, §3, §4

P. aeruginosa ATCC27853 = test: Checkerboard assay with rifampicin; type: cell-based, Pseudomonas aeruginosa
Description: as §1, §2, §3, §4

E. coli BW25113 [2] = test: Checkerboard assay with erythromycin; type: cell-based, Escherichia coli; conditions: for MSCery: erythromycin concentration in the combination with the synergist giving the lowest FICi, E. coli BW25113; for MIC of the peptide (MICpep): synergist alone, from checkerboard with erythromycin; for MIC of the peptide (MICpep) / MSCpeptide, minimum synergistic concentration: E. coli BW25113, LB, 20 h 37 °C; for MSCpeptide, minimum synergistic concentration: synergist concentration in the combination with erythromycin giving the lowest FICi, OD600
Description: as §1, §2, §3, §4

E. coli BW25113 [3] = test: Membrane permeability assay using N-phenylnaphthalen-1-amine (NPN); type: cell-based, Escherichia coli; conditions: at […]; 60 min incubation, λex 355 nm, λem 420 nm, relative to 100 µg/mL colistin; n = 3 technical replicates
Description: Figure 7 Permeabilization assay of E. coli BW25113 using N-Phenyl-1-naphthylamine as fluorescent probe. The read-out was performed after 60 min of incubation using a plate reader with λex 355 nm and λem 420 nm. The N-phenyl-napthalen-1-amine (NPN) uptake values shown are relative to the uptake signal obtained upon treating the cells with 100 µg/mL colistin as previously reported. Error bars represent the standard deviation based on n = 3 technical replicates. A read-out was also performed after 10 min of incubation (see Supplementary data, Figure S16).
This assay was adapted from a protocol described in literature. Bacteria were inoculated overnight at 37 °C in LB, diluted the next day 50× in LB and grown to OD600 of 0.5. The bacterial suspension was then centrifuged for 10 min at 1000× g at 25 °C. The pellet of bacteria was resuspended in 5 mM HEPES buffer containing 20mM glucose to a final concentration of OD600 of 1.0. […] After 10 and 60 min, the plate was measured using Tecan plate reader with λex 355 nm ±20 nm and λem 420 nm ± 20 nm. The fluorescence values obtained were then transformed into a NPN uptake percentage using the following Equation (2):NPN uptake (%) = (Fobs − F0)/(F100 − F0) × 100%,(2)
Equation (2) consists of an observed value of fluorescence (Fobs), which is corrected for background using the negative control (F0). […]

E. coli BW25113 [4] = type: cell-based, Escherichia coli; conditions: for MICpep: synergist alone, E. coli BW25113, from checkerboard with rifampicin; for MSCpep: synergist concentration in the combination with rifampicin giving the lowest FICi
Description: as §1, §2, §3, §4

E. coli BW25113 [5] = test: microbe, parasite or virus in culture; type: cell-based, Escherichia coli; remark: listed apart in the source
Description: as §1, §2, §3, §4

[6] = system: defibrinated sheep blood (red blood cells); test: Hemolysis assay; type: cell-based; conditions: 200 µg/mL compound, 20 h incubation at 37 °C with defibrinated sheep blood, PBS 0.002% Tween20, absorbance 415 nm, relative to 0.1% Triton X-100; n=3 technical replicates
Description: Defibrinated sheep blood (Thermo Fisher Scientific) and a phosphate-buffered saline (PBS) buffer containing 0.002% Tween20 were used in this assay. The red blood cells were washed with buffer followed by centrifugation (400 g for 15 min at 4 °C). The red blood cells were then normalized to obtain a positive control read-out around 2.5 at 415 nm to stay in the linear range with the maximum sensitivity. A serial dilution of the compounds (200–1.56 µg/mL, 75 µL) was prepared in a 96-well plate. Each plate contained a positive control (0.1% Triton X-100 final concentration, 75 µL) and the negative control (buffer, 75 µL). After addition of normalized blood cells (75 µL), the plates were incubated for 20 h at 37 °C at 500 rpm. The plates were centrifuged (800× g for 5 min at room temperature). For the next step flat-bottom polystyrene plates were prepared with 100 µL buffer in each well. Aliquots of 25 µL supernatant from the centrifuged plates were then transferred to their respective wells in the flat-bottom plate. Absorbance values where measured at 415 nm and corrected for background (negative control) and transformed to a percentage hemolysis relative to the positive control.

`CN[C@H](CC(C)C)C(=O)N[C@H]1C(=O)N[C@@H](CC(N)=O)C(=O)N[C@H]2C(=O)N[C@H]3C(=O)N[C@H](C(=O)N[C@H](C(=O)O)c4cc(O)cc(O)c4-c4cc3ccc4O)[C@H](O)c3ccc(c(Cl)c3)Oc3cc2cc(c3O[C@@H]2O[C@H](CO)[C@@H](O)[C@H](O)[C@H]2O[C@H]2C[C@](C)(N)[C@H](O)[C@H](C)O2)Oc2ccc(cc2Cl)[C@H]1O` [vancomycin, reference compound] was tested, and the MIC (E. coli BW25113 [1]; Escherichia coli, BW25113, read-out: MIC of vancomycin (MICvanco)) was greater than 200 µg/mL and the “MIC of vancomycin (MICvanco)” value (E. coli BW25113 [1]; antibiotic without synergist, E. coli BW25113) was greater than 200 µg/mL.
For `CO[C@H]1/C=C/O[C@@]2(C)Oc3c(C)c(O)c4c(O)c(c(/C=N/N5CCN(C)CC5)c(O)c4c3C2=O)NC(=O)/C(C)=C\C=C\[C@H](C)[C@H](O)[C@@H](C)[C@@H](O)[C@@H](C)[C@H](OC(C)=O)[C@@H]1C` [rifampicin, reference compound], the MIC (K. pneumoniae ATCC13883; Klebsiella pneumoniae, ATCC13883, read-out: MIC of rifampicin (MICrif)) was 32 µg/mL, the “MIC of rifampicin (MICrif)” value (K. pneumoniae ATCC13883; rifampicin without synergist, K. pneumoniae ATCC13883) was 32 µg/mL and the MICrif (E. coli mcr-1) was 12 µg/mL. For the same compound, the MICrif (E. coli ATCC25922) was 4 µg/mL, the MIC (A. baumannii ATCC17978; Acinetobacter baumannii, ATCC17978, read-out: MIC of rifampicin (MICrif)) was 2 µg/mL and the “MIC of rifampicin (MICrif)” value (A. baumannii ATCC17978; rifampicin without synergist, A. baumannii ATCC17978) was 2 µg/mL. The MIC (P. aeruginosa ATCC27853; Pseudomonas aeruginosa, ATCC27853, read-out: MIC of rifampicin (MICrif)) was 16 µg/mL and the “MIC of rifampicin (MICrif)” value (P. aeruginosa ATCC27853; rifampicin without synergist, P. aeruginosa ATCC27853) was 16 µg/mL.
For `CC(C)C[C@@H]1NC(=O)[C@@H](Cc2ccccc2)NC(=O)[C@H](CCN)NC(=O)[C@@H](NC(=O)[C@H](CCN)NC(=O)[C@@H](N)[C@@H](C)O)CCNC(=O)[C@H]([C@@H](C)O)NC(=O)[C@H](CCN)NC(=O)[C@H](CCN)NC1=O` [PMBN, polymyxin B nonapeptide, reference compound] (H-T[Dab][Dab][Dab][dF]L[Dab][Dab]T; lactam 3-C (inferred); N-terminus assumed), the FICi (E. coli BW25113 [2]; BW25113, 20 h) was 0.125, the MSCery (E. coli BW25113 [2]) was 12.5 µg/mL and the “MIC of the peptide (MICpep)” value (E. coli BW25113 [2]) was greater than 200 µg/mL. For the same compound, the “MSCpeptide, minimum synergistic concentration” value (E. coli BW25113 [2]) was 25 µg/mL, the “OM permeabilization (NPN uptake)” value (E. coli BW25113 [3]) was “ca. 80%” and the MSCrif (E. coli BW25113 [4]; rifampicin concentration in the combination giving the lowest FICi, E. coli BW25113) was 0.25 µg/mL. It also gave an MICpep (E. coli BW25113 [4]) greater than 200 µg/mL, an MSCpep (E. coli BW25113 [4]; E. coli BW25113) of 12.5 µg/mL and an MICpeptide (E. coli BW25113 [1]; synergist alone, E. coli BW25113, from checkerboard with vancomycin) greater than 200 µg/mL. For the same compound, the MSCpeptide (E. coli BW25113 [1]; synergist concentration in the combination with vancomycin giving the lowest FICi, E. coli BW25113) was 12.5 µg/mL, the MSCvanco (E. coli BW25113 [1]; vancomycin concentration in the combination giving the lowest FICi, E. coli BW25113) was 50 µg/mL and the MSCnovo (E. coli BW25113 [5]; novobiocin concentration in the combination giving the lowest FICi, E. coli BW25113) was 6.25 µg/mL. It also gave an MICpeptide (E. coli BW25113 [5]; synergist alone, E. coli BW25113, from checkerboard with novobiocin) greater than 200 µg/mL and an MSCpeptide (E. coli BW25113 [5]; synergist concentration in the combination with novobiocin giving the lowest FICi, E. coli BW25113) of 12.5 µg/mL.
With `CC[C@H](C)[C@H](NC(=O)[C@@H](NC(=O)[C@H](C)NC(=O)[C@H](CCC(N)=O)NC(=O)[C@@H](NC(=O)[C@H](Cc1c[nH]c2ccccc12)NC(=O)[C@H](CCCCN)NC(=O)[C@H](CCCCN)NC(=O)[C@H](CC(C)C)NC(=O)[C@H](CCCNC(=N)N)NC(=O)[C@H](Cc1ccccc1)NC(=O)[C@@H](N)C(C)C)[C@@H](C)CC)C(C)C)C(N)=O` [compound 17] (H-VFRLKKWIQAVI-NH2) the MSCery (E. coli BW25113 [2]) was 6.25 µg/mL, the “MIC of the peptide (MICpep)” value (E. coli BW25113 [2]) was 12.5 µg/mL and the “MSCpeptide, minimum synergistic concentration” value (E. coli BW25113 [2]) was 6.25 µg/mL. The FICi (E. coli BW25113 [2]; with erythromycin vs E. coli BW25113, synergy defined as FICi ≤ 0.5) was greater than 0.5, the Hemolysis [6] was 20.7% and 21% and the FICi (E. coli BW25113 [4]; BW25113, 20 h) was 0.2656. The MICpep (E. coli BW25113 [4]) was 25 µg/mL and the MSCpep (E. coli BW25113 [4]; E. coli BW25113) was 6.25 µg/mL.
